Where “and” joins values, the source holds several entries; their conditions need not be identical. Identical values can stand only once. Inconclusive results and toxic doses are left out.
System: BDF1 mice, L1210 6-MP/6-TG resistant leukemia ip, survival T/C
Test: NCI In Vivo Anticancer Drug Screen. Data for tumor model L1210 Leukemia resistant to 6-MP and 6-Thioguanine; NSC 755, NSC 752 (intraperitoneal) in B6D2F1 (BDF1) mice
Details: endpoint: mean survival time, higher = longer survival
Experimental: The antitumor activity of compounds was measured in mice bearing transplantable tumors. Survival or tumor size were measured and the results are expressed as the measurement made in the treated group (T) divided by the measurement made in the vehicle treated control group (C). The tumor model used in this assay is L1210 Leukemia resistant to 6-MP and 6-Thioguanine; NSC 755, NSC 752 (intraperitoneal) in B6D2F1 (BDF1) mice

[1] = dose: 75.0 mg/kg/injection, schedule: Q01DX Z (ip), vehicle: carboxymethylcellulose (CMC)
[2] = dose: 150.0 mg/kg/injection, schedule: Q01DX Z (ip), vehicle: carboxymethylcellulose (CMC)
[3] = dose: 125.0 mg/kg/injection, schedule: Q01DX Z (ip), vehicle: carboxymethylcellulose (CMC)
[4] = dose: 250.0 mg/kg/injection, schedule: Q01DX Z (ip), vehicle: carboxymethylcellulose (CMC)
[5] = dose: 40.0 mg/kg/injection, schedule: Q01DX Z (ip), vehicle: carboxymethylcellulose (CMC)
[6] = dose: 25.0 mg/kg/injection, schedule: Q01DX Z (ip), vehicle: carboxymethylcellulose (CMC)
[7] = dose: 100.0 mg/kg/injection, schedule: Q01DX Z (ip), vehicle: carboxymethylcellulose (CMC)

SMILES: Nn1cnc2c(=S)nc[nH]c21
- T/C (dose: 18.0 mg/kg/injection, schedule: Q01DX009 (ip), vehicle: other): 98 % of control
- T/C (dose: 28.0 mg/kg/injection, schedule: Q01DX009 (ip), vehicle: other): 96 % of control
- T/C (dose: 42.0 mg/kg/injection, schedule: Q01DX015 (ip), vehicle: other): 99 % of control
- T/C (dose: 72.0 mg/kg/injection, schedule: Q01DX015 (ip), vehicle: other): 92 % of control

SMILES: Nc1nc(F)nc2c1ncn2C1OC(CO)C(O)C1O (centres undefined)
- T/C (dose: 0.06 mg/kg/injection, schedule: Q01DX Z (ip), vehicle: saline): 109 % of control
- T/C (dose: 0.12 mg/kg/injection, schedule: Q01DX Z (ip), vehicle: saline): 104 % of control
- T/C (dose: 0.25 mg/kg/injection, schedule: Q01DX Z (ip), vehicle: saline): 106 % of control
- T/C (dose: 0.5 mg/kg/injection, schedule: Q01DX Z (ip), vehicle: saline): 101 % of control
- T/C (dose: 0.75 mg/kg/injection, schedule: Q01DX Z (ip), vehicle: saline): 119 % of control
- T/C (dose: 1.5 mg/kg/injection, schedule: Q01DX Z (ip), vehicle: saline): 107 % of control
- T/C (dose: 3.0 mg/kg/injection, schedule: Q01DX Z (ip), vehicle: saline): 115 % of control
- T/C (dose: 6.0 mg/kg/injection, schedule: Q01DX Z (ip), vehicle: saline): 90 % of control

SMILES: C=C(C)CSc1ncnc2nc[nH]c12
- T/C (dose: 62.0 mg/kg/injection, schedule: Q01DX015 (ip), vehicle: other): 109 % of control
- T/C (dose: 125.0 mg/kg/injection, schedule: Q01DX015 (ip), vehicle: other): 95 % of control
- T/C (dose: 250.0 mg/kg/injection, schedule: Q01DX015 (ip), vehicle: other): 100 % of control

SMILES: C[C@H]1C(=O)O[C@@H]2CCN3CC=C(COC(=O)[C@](C)(O)[C@@]1(C)O)[C@H]23
- T/C (dose: 37.5 mg/kg/injection, schedule: Q01DX Z (ip), vehicle: carboxymethylcellulose (CMC)): 91 % of control
- T/C [1]: 110 % of control
- T/C [2]: 107 % of control
- T/C (dose: 300.0 mg/kg/injection, schedule: Q01DX Z (ip), vehicle: carboxymethylcellulose (CMC)): 104 % of control

SMILES: N#[N+]c1cnc([O-])[nH]c1=O
- T/C (dose: 5.0 mg/kg/injection, schedule: Q01DX Z (ip), vehicle: alkali diluted with saline): 166 % of control
- T/C (dose: 7.5 mg/kg/injection, schedule: Q01DX Z (ip), vehicle: alkali diluted with saline): 177 % of control
- T/C (dose: 10.0 mg/kg/injection, schedule: Q01DX Z (ip), vehicle: alkali diluted with saline): 150 % of control
- T/C (dose: 15.0 mg/kg/injection, schedule: Q01DX Z (ip), vehicle: alkali diluted with saline): 95 % of control

SMILES: Ic1ncnc2nc[nH]c12
- T/C (dose: 62.5 mg/kg/injection, schedule: Q01DX Z (ip), vehicle: carboxymethylcellulose (CMC)): 88 % of control
- T/C [3]: 89 % of control
- T/C [4]: 89 % of control

SMILES: COC12C(COC(N)=O)C3=C(C(=O)C(C)=C(N)C3=O)N1CC1C2N1C (centres undefined)
- T/C (dose: 1.3 mg/kg/injection, schedule: Q01DX015 (ip), vehicle: carboxymethylcellulose (CMC)): 166 % of control
- T/C (dose: 1.9 mg/kg/injection, schedule: Q01DX015 (ip), vehicle: carboxymethylcellulose (CMC)): 120 % of control
- T/C (dose: 2.0 mg/kg/injection, schedule: Q01DX015 (ip), vehicle: carboxymethylcellulose (CMC)): 254 % of control
- T/C (dose: 2.9 mg/kg/injection, schedule: Q01DX015 (ip), vehicle: carboxymethylcellulose (CMC)): 181 % of control
- T/C (dose: 3.0 mg/kg/injection, schedule: Q01DX015 (ip), vehicle: carboxymethylcellulose (CMC)): 229 % of control
- T/C (dose: 4.4 mg/kg/injection, schedule: Q01DX015 (ip), vehicle: carboxymethylcellulose (CMC)): 123 % of control
- T/C (dose: 4.5 mg/kg/injection, schedule: Q01DX015 (ip), vehicle: carboxymethylcellulose (CMC)): 189 % of control
- T/C (dose: 6.75 mg/kg/injection, schedule: Q01DX015 (ip), vehicle: carboxymethylcellulose (CMC)): 166 % of control

SMILES: N[C@@H](Cc1ccc(N(CCCl)CCCl)cc1)C(=O)O
- T/C (dose: 4.0 mg/kg/injection, schedule: Q01DX Z (ip), vehicle: carboxymethylcellulose (CMC)): 107 % of control
- T/C (dose: 6.0 mg/kg/injection, schedule: Q01DX Z (ip), vehicle: carboxymethylcellulose (CMC)): 122 % of control
- T/C (dose: 8.0 mg/kg/injection, schedule: Q01DX Z (ip), vehicle: carboxymethylcellulose (CMC)): 119 % of control
- T/C (dose: 12.0 mg/kg/injection, schedule: Q01DX Z (ip), vehicle: carboxymethylcellulose (CMC)): 122 % of control

SMILES: COc1cc([C@@H]2c3cc4c(cc3[C@H](O)[C@H]3COC(=O)[C@@H]23)OCO4)cc(OC)c1OC
- T/C (dose: 10.0 mg/kg/injection, schedule: Q01DX Z (ip), vehicle: carboxymethylcellulose (CMC)): 124 % of control
- T/C [5]: 101 % of control

SMILES: COCCCNS(=O)(=O)c1ncnc2nc[nH]c12
- T/C [6]: 92 % of control
- T/C [7]: 90 % of control

SMILES: C(=C\c1ccccc1)/CSc1ncnc2nc[nH]c12
- T/C (dose: 62.0 mg/kg/injection, schedule: Q01DX015 (ip), vehicle: carboxymethylcellulose (CMC)): 98 % of control
- T/C (dose: 125.0 mg/kg/injection, schedule: Q01DX015 (ip), vehicle: carboxymethylcellulose (CMC)): 96 % of control
- T/C (dose: 250.0 mg/kg/injection, schedule: Q01DX015 (ip), vehicle: carboxymethylcellulose (CMC)): 91 % of control
- T/C (dose: 500.0 mg/kg/injection, schedule: Q01DX015 (ip), vehicle: carboxymethylcellulose (CMC)): 90 % of control
- T/C (dose: 1000.0 mg/kg/injection, schedule: Q01DX015 (ip), vehicle: carboxymethylcellulose (CMC)): 90 % of control

SMILES: O=c1[nH]c(=O)n(C2CC(O)C(CO)O2)cc1I (centres undefined)
- T/C (dose: 20.0 mg/kg/injection, schedule: Q01DX Z (ip), vehicle: carboxymethylcellulose (CMC)): 108 % of control
- T/C [6]: 121 % of control
- T/C (dose: 30.0 mg/kg/injection, schedule: Q01DX Z (ip), vehicle: carboxymethylcellulose (CMC)): 95 % of control
- T/C [5]: 87 % of control
- T/C (dose: 60.0 mg/kg/injection, schedule: Q01DX Z (ip), vehicle: carboxymethylcellulose (CMC)): 108 % of control
- T/C [1]: 182 % of control
- T/C [7]: 154 % of control
- T/C [3]: 115 % of control
- T/C [4]: 100 % of control
- T/C (dose: 375.0 mg/kg/injection, schedule: Q01DX Z (ip), vehicle: carboxymethylcellulose (CMC)): 93 % of control

SMILES: Nc1ccc(C(=O)NO)cc1
- T/C (dose: 112.5 mg/kg/injection, schedule: Q01DX015 (ip), vehicle: carboxymethylcellulose (CMC)): 102 % of control
- T/C (dose: 225.0 mg/kg/injection, schedule: Q01DX015 (ip), vehicle: carboxymethylcellulose (CMC)): 91 % of control
- T/C (dose: 450.0 mg/kg/injection, schedule: Q01DX015 (ip), vehicle: carboxymethylcellulose (CMC)): 90 % of control
- T/C (dose: 900.0 mg/kg/injection, schedule: Q01DX015 (ip), vehicle: carboxymethylcellulose (CMC)): 97 % of control

SMILES: O=C(Nc1ccc(C2=NCCN2)cc1)c1ccc(C(=O)Nc2ccc(C3=NCCN3)cc2)cc1
- T/C (dose: 18.75 mg/kg/injection, schedule: Q01DX Z (ip), vehicle: carboxymethylcellulose (CMC)): 154 % of control
- T/C [6]: 151 % of control
- T/C (dose: 27.0 mg/kg/injection, schedule: Q02DX010 (ip), vehicle: carboxymethylcellulose (CMC)): 312 % of control
- T/C (dose: 40.0 mg/kg/injection, schedule: Q02DX010 (ip), vehicle: carboxymethylcellulose (CMC)): 317 % of control
- T/C (dose: 50.0 mg/kg/injection, schedule: Q01DX Z (ip), vehicle: carboxymethylcellulose (CMC)): 219 % of control
- T/C (dose: 60.0 mg/kg/injection, schedule: Q02DX010 (ip), vehicle: carboxymethylcellulose (CMC)): 296 % of control
- T/C [1]: 188 % of control and 232 % of control
- T/C (dose: 90.0 mg/kg/injection, schedule: Q02DX010 (ip), vehicle: carboxymethylcellulose (CMC)): 280 % of control
- T/C [7]: 288 % of control and 295 % of control
- T/C (dose: 135.0 mg/kg/injection, schedule: Q02DX010 (ip), vehicle: carboxymethylcellulose (CMC)): 312 % of control
- T/C [2]: 300 % of control
- T/C (dose: 200.0 mg/kg/injection, schedule: Q01DX Z (ip), vehicle: carboxymethylcellulose (CMC)): 186 % of control

SMILES: CSc1ncnc2c1ncn2C1CC(O)C(CO)O1 (centres undefined)
- T/C (dose: 32.0 mg/kg/injection, schedule: Q## X032 (ip), vehicle: saline): 105 % of control
- T/C (dose: 48.0 mg/kg/injection, schedule: Q## X032 (ip), vehicle: saline): 96 % of control
- T/C (dose: 72.0 mg/kg/injection, schedule: Q## X032 (ip), vehicle: saline): 107 % of control

SMILES: c1nc(SC2CCCC2)c2[nH]cnc2n1
- T/C (dose: 80.0 mg/kg/injection, schedule: Q01DX Z (ip), vehicle: carboxymethylcellulose (CMC)): 96 % of control
- T/C (dose: 160.0 mg/kg/injection, schedule: Q01DX Z (ip), vehicle: carboxymethylcellulose (CMC)): 110 % of control
- T/C (dose: 320.0 mg/kg/injection, schedule: Q01DX Z (ip), vehicle: carboxymethylcellulose (CMC)): 89 % of control

— PubChem BioAssay AID308 (DTP/NCI, 2004)
